In patent US10005767B2, “Compositions and methods for inhibition of the JAK pathway” (Rigel Pharmaceuticals, Inc., priority 2009, dated 2018):
pIC50: −log10 of the molar value.

These molecules were tested on human primary T-cells, IL-2 stimulated proliferation (JAK-1 and JAK-3 dependent; reported as JAK3 activity) (assay: Human primary T-cell proliferation stimulated by IL-2 (Example 3)). Conditions: Homo sapiens, T-cell, tested under conditions described in Example 3 (IL-2 stimulated human primary T-cell proliferation); read-out: ability to inhibit JAK3 activity, IC50 range (Table V).
Assay type: cell-based
In short: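 Peripheral-blood human T-cells pre-activated via TCR/CD28, IL-2-starved overnight, then cultured 72 h at 37 °C with compound in Yssel's medium containing IL-2 (80 U/mL in cell suspension). Proliferation read as viable-cell ATP by CellTiter-Glo luminescence; reduction versus control taken as JAK pathway inhibition.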

SMILES	pIC50
Cc1cnc(Nc2ccc(N3CCN(C(=O)OC(C)(C)C)C(C)C3)nc2)nc1Nc1ccc2oc(=O)[nH]c2c1 (stereo not shown) [II-11, N4-(benzo[d]oxazol-2(3H)-on-5-yl)-N2-(6-(3-methyl-4-tert-butoxycarbonylpiperazin-1-yl)pyridin-3-yl)-5-methylpyrimidine-2,4-diamine]	> 6.30
CCc1ccc(Nc2ncc(C)c(Nc3ccc4oc(=O)[nH]c4c3)n2)cc1 [Compound I-504, 5-(2-(4-ethylphenylamino)-5-methylpyrimidin-4-ylamino)benzo[d]oxazol-2(3H)-one]	> 6.30
Cc1cnc(Nc2ccccc2Cl)nc1Nc1ccc2oc(=O)[nH]c2c1 [Compound I-520, 5-(2-(2-chlorophenylamino)-5-methylpyrimidin-4-ylamino)benzo[d]oxazol-2(3H)-one]	5.30 to 6.30
Cc1cnc(Nc2ccc(C(C)N3CCC3)cc2)nc1Nc1ccc2oc(=O)[nH]c2c1 (stereo not shown) [Compound I-201, 5-(2-(4-(1-(azetidin-1-yl)ethyl)phenylamino)-5-methylpyrimidin-4-ylamino)benzo[d]oxazol-2(3H)-one]	> 6.30
Cc1cnc(Nc2ccc(C(=O)N(C)C)cc2)nc1Nc1ccc2oc(=O)[nH]c2c1 [Compound I-132, N,N-Dimethyl-4-[5-methyl-4-(2-oxo-2,3-dihydro-benzooxazol-5-ylamino)-pyrimidin-2-ylamino]-benzamide]	> 6.30
Cc1cnc(Nc2ccc(N3CCN(C)CC3)nc2)nc1Nc1ccc2[nH]c(=O)oc2c1 [II-25, 6-(5-methyl-2-(6-(4-methylpiperazin-1-yl)pyridin-3-ylamino)pyrimidin-4-ylamino)benzo[d]oxazol-2(3H)-one]	> 6.30
COC(=O)N1CCN(c2ccc(Nc3ncc(C)c(Nc4ccc5oc(=O)[nH]c5c4)n3)cn2)CC1 [II-9, N4-(benzo[d]oxazol-2(3H)-on-5-yl)-N2-(6-(4-methoxycarbonylpiperazin-1-yl)pyridin-3-yl)-5-methylpyrimidine-2,4-diamine]	> 6.30
Cc1cnc(Nc2ccc3c(c2)CCC(=O)N3)nc1Nc1ccc2oc(=O)[nH]c2c1 [IV-33, 5-(5-methyl-2-(2-oxo-1,2,3,4-tetrahydroquinolin-6-ylamino)pyrimidin-4-ylamino)benzo[d]oxazol-2(3H)-one]	> 6.30
Cc1ccc(Nc2ncc(C)c(Nc3ccc4oc(=O)[nH]c4c3)n2)cc1C [Compound I-178, 5-[2-(3,4-Dimethyl-phenylamino)-5-methyl-pyrimidin-4-ylamino]-3H-benzooxazol-2-one]	> 6.30
Cc1cnc(Nc2ccc(N3CCN(CC4CC4)[C@H](C)C3)nc2)nc1Nc1ccc2oc(=O)[nH]c2c1 [II-56, (R)-5-(2-(6-(4-(cyclopropylmethyl)-3-methylpiperazin-1-yl)pyridin-3-ylamino)-5-methylpyrimidin-4-ylamino)benzo[d]oxazol-2(3H)-one]	> 6.30
Cc1cnc(Nc2cccc(C)c2C)nc1Nc1ccc2oc(=O)[nH]c2c1 [Compound I-500, 5-(2-(2,3-dimethylphenylamino)-5-methylpyrimidin-4-ylamino)benzo[d]oxazol-2(3H)-one]	5.30 to 6.30
[2H]C([2H])([2H])Oc1cc(C)cc(Nc2ncc(C)c(Nc3ccc4oc(=O)[nH]c4c3)n2)c1 [Compound I-266, 5-(2-(3-methyl-5-trideuteromethoxyphenylamino)-5-methylpyrimidin-4-ylamino)benzo[d]oxazol-2(3H)-one]	> 6.30
Cc1cnc(Nc2ccc3c(c2)C(=O)N(C)CCCC3)nc1Nc1ccc2oc(=O)[nH]c2c1 [IV-14, 2-Methyl-9-[5-methyl-4-(2-oxo-2,3-dihydro-benzooxazol-5-ylamino)-pyrimidin-2-ylamino]-3,4,5,6-tetrahydro-2H-benzo[c]azocin-1-one]	> 6.30
COc1ccnc(Nc2ncc(C)c(Nc3ccc4oc(=O)[nH]c4c3)n2)c1 [IV-58, N2-(4-methoxypyridin-2-yl)-5-methyl-N4-(2-oxo-2,3-dihydro-1,3-benzoxazol-5-yl)-2,4-pyrimidinediamine]	< 5.00
Cc1cnc(Nc2ccc(F)c(S(C)(=O)=O)c2)nc1Nc1ccc2oc(=O)[nH]c2c1 [Compound I-242, 5-(2-(4-fluoro-3-(methylsulfonyl)phenylamino)-5-methylpyrimidin-4-ylamino)benzo[d]oxazol-2(3H)-one]	> 6.30
Cc1cnc(Nc2ccc(OCCCN(C)C)c(C(F)(F)F)c2)nc1Nc1ccc2oc(=O)[nH]c2c1 [Compound I-404, 5-{2-[4-(3-Dimethylamino-propoxy)-3-trifluoromethyl-phenylamino]-5-methyl-pyrimidin-4-ylamino}-3H-benzooxazol-2-one]	> 6.30
Cc1cnc(Nc2ccc3ccncc3c2)nc1Nc1ccc2oc(=O)[nH]c2c1 [IV-57, 5-[2-(Isoquinolin-7-ylamino)-5-methyl-pyrimidin-4-ylamino]-3H-benzooxazol-2-one]	< 5.00
Cc1cnc(Nc2ccc(N3CCN[C@@H](C)C3)nc2)nc1Nc1ccc2oc(=O)[nH]c2c1 [II-44, 5-{5-Methyl-2-[6-((S)-3-methyl-piperazin-1-yl)-pyridin-3-ylamino]-pyrimidin-4-ylamino}-3H-benzooxazol-2-one]	> 6.30
Cc1cnc(Nc2ccc(N3CCOCC3)nc2)nc1Nc1cc(C)c2oc(=O)[nH]c2c1 [II-73, 7-methyl-5-(5-methyl-2-(6-morpholinopyridin-3-ylamino)pyrimidin-4-ylamino)benzo[d]oxazol-2(3H)-one]	> 6.30

Same assay, conditions: tested under conditions described in Example 3 (IL-2 stimulated human primary T-cell proliferation); read-out: ability to inhibit JAK3 activity, IC50 range (Table V)

SMILES	pIC50
Cc1cnc(Nc2cccc(C(=O)N3CCN(C)CC3)c2)nc1Nc1ccc2oc(=O)[nH]c2c1 [Compound I-321, 5-methyl-N2-[3-(4-methylpiperazin-1-yl)carbonyl]phenyl-N4-(2-oxo-2,3-dihydro-1,3-benzoxazol-5-yl)-2,4-pyrimidinediamine]	> 6.30
Cc1cnc(Nc2ccc3c(c2)OC2(CCCCC2)O3)nc1Nc1ccc2oc(=O)[nH]c2c1 [IV-39, N2-[spiro(2,1′-cyclohexan)-1,3-benzodioxol-5-yl]-5-methyl-N4-(2-oxo-2,3-dihydro-1,3-benzoxazol-5-yl)-2,4-pyrimidinediamine]	> 6.30
COc1cc(F)cc(Nc2ncc(C)c(Nc3ccc4oc(=O)[nH]c4c3)n2)c1 [Compound I-352, N2-(3-fluoro-5-methoxy)phenyl-5-methyl-N4-(2-oxo-2,3-dihydro-1,3-benzoxazol-5-yl)-2,4-pyrimidinediamine]	> 6.30
Cn1c(=O)oc2ccc(Nc3nc(Nc4ccc(S(N)(=O)=O)cc4)ncc3F)cc21 [Compound I-76, N2-((4-aminosulfonyl)phenyl)-N4-(3-methyl-2-oxo-2,3-dihydrobenzo[d]oxazol-5-yl)-5-fluoropyrimidine-2,4-diamine]	5.30 to 6.30
Cc1cnc(Nc2ccc(F)c(Cl)c2)nc1Nc1ccc2oc(=O)[nH]c2c1 [Compound I-399, N2-(3-chloro-4-fluoro)phenyl-5-methyl-N4-(2-oxo-2,3-dihydro-1,3-benzoxazol-5-yl)-2,4-pyrimidinediamine]	> 6.30
Cc1cnc(Nc2cc(F)c(F)c(F)c2)nc1Nc1ccc2oc(=O)[nH]c2c1 [Compound I-408, 5-methyl-N4-(2-oxo-2,3-dihydro-1,3-benzoxazol-5-yl)-N2-(3,4,5-trifluoro)phenyl-2,4-pyrimidinediamine]	> 6.30
Cc1cnc(Nc2ccc(Cl)c(OC(F)F)c2)nc1Nc1ccc2oc(=O)[nH]c2c1 [Compound I-418, N2-(4-chloro-3-difluoromethoxy)phenyl-5-methyl-N4-(2-oxo-2,3-dihydro-1,3-benzoxazol-5-yl)-2,4-pyrimidinediamine]	> 6.30
Cc1cnc(Nc2cccc(S(C)(=O)=O)c2)nc1Nc1ccc2c(c1)oc(=O)n2C [Compound I-65, N2-((3-methylsulfonyl)phenyl)-N4-(3-methyl-2-oxo-2,3-dihydrobenzo[d]oxazol-6-yl)-5-methylpyrimidine-2,4-diamine]	> 6.30
COc1c(C(C)C)cc(Nc2ncc(C)c(Nc3ccc4oc(=O)[nH]c4c3)n2)cc1C(C)C [Compound I-371, N2-(3,5-diisopropyl-4-methoxy)phenyl-5-methyl-N4-(2-oxo-2,3-dihydro-1,3-benzoxazol-5-yl)-2,4-pyrimidinediamine]	5.30 to 6.30
Cc1cnc(Nc2cc(OC(F)F)cc(C(F)(F)F)c2)nc1Nc1ccc2oc(=O)[nH]c2c1 [Compound I-353, N2-(3-difluoromethoxy-5-trifluoromethyl)phenyl-5-methyl-N4-(2-oxo-2,3-dihydro-1,3-benzoxazol-5-yl)-2,4-pyrimidinediamine]	> 6.30
COC(=O)COc1cccc(Nc2ncc(C)c(Nc3ccc4oc(=O)[nH]c4c3)n2)c1 [Compound I-305, N2-(3-methoxycarbonylmethoxy)phenyl-5-methyl-N4-(2-oxo-2,3-dihydro-1,3-benzoxazol-5-yl)-2,4-pyrimidinediamine]	5.30 to 6.30
Cc1cc(Nc2ncc(C)c(Nc3ccc4oc(=O)[nH]c4c3)n2)ccc1OC(F)F [Compound I-387, N2-(4-difluoromethoxy-3-methyl)phenyl-5-methyl-N4-(2-oxo-2,3-dihydro-1,3-benzoxazol-5-yl)-2,4-pyrimidinediamine]	> 6.30
Cc1cnc(Nc2ccc(N3CCN(C)CC3)nc2)nc1Nc1ccc2[nH]c(=O)[nH]c2c1 [II-15, N4-(benzimidazolin-2-on-5-yl)-N2-[2-(4-methylpiperazin-1-yl)pyridin-5-yl]-5-methylpyrimidine-2,4-diamine]	> 6.30
Cc1ccc(Nc2ncc(F)c(Nc3ccc4oc(=O)[nH]c4c3)n2)cc1NS(C)(=O)=O [Compound I-84, N2-((3-methylsulfonylamino-4-methyl)phenyl)-N4-(2-oxo-2,3-dihydrobenzo[d]oxazol-5-yl)-5-fluoropyrimidine-2,4-diamine]	> 6.30
Cn1c(=O)oc2cc(Nc3nc(Nc4ccc(NS(C)(=O)=O)cc4)ncc3F)ccc21 [Compound I-62, N2-((4-methylsulfonylamino)phenyl)-N4-(3-methyl-2-oxo-2,3-dihydrobenzo[d]oxazol-6-yl)-5-fluoropyrimidine-2,4-diamine]	5.30 to 6.30
